Experimental findings from patent US20110039879A1, “METHODS FOR INCREASING WHITE BLOOD CELLS” (FibroGen ,Inc., priority 2007, published 2011) are described below.

Format in all cases: in vivo, Swiss-Webster mice
Assay [1] deals with neutrophils. Kind of assay: Neutrophils by complete blood count on day 8, dosing day 1, 3, 5. The note with it: mice, oral gavage, measured on day 8.
Assay [2] has as its system total white blood cell (WBC). Kind of assay: Total white blood cells by complete blood count on day 8, dosing day 1, 3, 5. The note with it: Mus musculus, 192 h, mice, oral gavage, measured on day 8, read-out: Total WBC % Increase Over Control; for change in vivo at 60 mg/kg: 60 mg/kg on day 1, day 3 and day 5; for change in vivo at 20 mg/kg: 20 mg/kg on day 1, day 3 and day 5; for change in vivo at 100 mg/kg: 100 mg/kg on day 1, day 3 and day 5; for change in vivo at 200 mg/kg: 200 mg/kg on day 1, day 3 and day 5. How it is done:
(§1) To examine the effect of compounds and methods of the present invention on increasing white blood cells, the following studies were performed. In one series of experiments, male Swiss-Webster mice were administered various compounds of the present invention via oral gavage using a ball-tipped gavage needle. […] Animals were dosed once daily for 3 or 4 days. Six hours after the final dosing, 200 μl blood samples were collected and total white blood cell, neutrophil, and lymphocyte levels were measured by complete blood count (CBC) using a CellDyn cell analyzer (Abbott Laboratories).
(§2) In another series of experiments, male Swiss-Webster mice were administered various compounds (see Table 7 and Table 8) of the present invention via oral gavage using a ball-tipped gavage needle. […] Total WBC, neutrophil, lymphocyte, and monocyte levels were measured in mice as described above on day 8 following administration of compound on day 1, day 3, and day 5.

The test system of assay [3] is monocytes. Kind of assay: Monocytes by complete blood count on day 8, dosing day 1, 3, 5. Conditions: mice, oral gavage, measured on day 8; for change in vivo at 60 mg/kg / change in vivo at 20 mg/kg / change in vivo at 100 mg/kg / change in vivo at 200 mg/kg: Mus musculus, Monocyte, 192 h, read-out: Monocytes % Increase Over Control.
For assay [4], the system named is neutrophils. The assay can be described thus: Neutrophils by complete blood count on day 8, dosing day 1, 3, 5. Conditions: Mus musculus, Neutrophil, 192 h, mice, oral gavage, measured on day 8, read-out: Neutrophils % Increase Over Control; for change in vivo at 60 mg/kg: 60 mg/kg on day 1, day 3 and day 5; for change in vivo at 20 mg/kg: 20 mg/kg on day 1, day 3 and day 5; for change in vivo at 100 mg/kg: 100 mg/kg on day 1, day 3 and day 5; for change in vivo at 200 mg/kg: 200 mg/kg on day 1, day 3 and day 5. As to the method:
as §1, §2

In assay [5] the test system is lymphocytes. The assay can be described thus: Lymphocytes by complete blood count on day 8, dosing day 1, 3, 5. The note with it: mice, oral gavage, measured on day 8; for change in vivo at 60 mg/kg / change in vivo at 20 mg/kg / change in vivo at 100 mg/kg / change in vivo at 200 mg/kg: Mus musculus, Lymphocyte, 192 h, read-out: Lymphocytes % Increase Over Control. How it is done:
as §1, §2

In assay [6] the test system is total white blood cell (WBC). The assay can be described thus: Total white blood cells by complete blood count on day 8, dosing day 1, 3, 5. The note with it: mice, oral gavage, measured on day 8.
The mark [7] stands for this setting: 60 mg/kg on day 1, day 3 and day 5.
Setting [8] is: 20 mg/kg on day 1, day 3 and day 5.
Where [9] appears, read: 100 mg/kg on day 1, day 3 and day 5.
Where [10] appears, read: 200 mg/kg on day 1, day 3 and day 5.

Turning to `N#Cc1nc(C(=O)NCC(=O)O)c(O)c2ccn(Cc3ccc(-c4ccccc4)cc3)c12` [Compound AU, [(1-Biphenyl-4-ylmethyl-7-cyano-4-hydroxy-1H-pyrrolo[2,3-c]pyridine-5-carbonyl)-amino]-acetic acid], the Neutrophils in assay [1] (setting [7]) is reported as 1.1 10^3 cells/μl. The change in vivo at 60 mg/kg in assay [2] was 290%; in assay [3] (setting [7]), 118%; in assay [4], 63%; in assay [5] (setting [7]), 332%. The Monocytes in assay [3] (setting [7]) is listed as 0.3 10^3 cells/μl. In addition, in assay [5] (setting [7]), the Lymphocytes is recorded as 21.0 10^3 cells/μl. In addition, the “Total WBC” value in assay [6] (setting [7]) is 22.6 10^3 cells/μl.

Take `CCCCCCn1cc(Cl)c2c(O)c(C(=O)NCC(=O)O)nc(C#N)c21` [Compound AS, [(3-Chloro-7-cyano-1-hexyl-4-hydroxy-1H-pyrrolo[2,3-c]pyridine-5-carbonyl)-amino]-acetic acid]: the Neutrophils in assay [1] (setting [8]) was 0.9 10^3 cells/μl. For the same compound, the change in vivo at 20 mg/kg is 24% in assay [2], -8% in assay [3] (setting [8]), 42% in assay [4] and 24% in assay [5] (setting [8]). Moreover, the Monocytes in assay [3] (setting [8]) was 0.2 10^3 cells/μl. Further, the Lymphocytes in assay [5] (setting [8]) is 6.0 10^3 cells/μl. For the same compound, the “Total WBC” value in assay [6] (setting [8]) is listed as 7.2 10^3 cells/μl.

For the compound `Cc1ccc(Oc2cccc3c(C#N)nc(C(=O)NCC(=O)O)c(O)c23)cc1` [Compound BA, [(1-Cyano-4-hydroxy-5-p-tolyloxy-isoquinoline-3-carbonyl)-amino]-acetic acid], the Neutrophils in assay [1] (setting [9]) is 0.7 10^3 cells/μl. Besides, the change in vivo at 100 mg/kg worked out at 434% in assay [2], 20% in assay [3] (setting [9]), 38% in assay [4] and 514% in assay [5] (setting [9]). Besides, the Monocytes in assay [3] (setting [9]) was 0.2 10^3 cells/μl. Further, in assay [5] (setting [9]), the Lymphocytes is 23.8 10^3 cells/μl. In assay [6] (setting [9]), the “Total WBC” value is reported as 24.7 10^3 cells/μl.

Turning to `O=C(O)CNC(=O)c1c(O)c2ccccc2sc1=O` [Compound BF, [(4-Hydroxy-2-oxo-2H-thiochromene-3-carbonyl)-amino]-acetic acid], the Neutrophils in assay [1] (setting [8]) is 1.0 10^3 cells/μl. Also, the change in vivo at 20 mg/kg stood at 17% in assay [2], 64% in assay [3] (setting [8]), 65% in assay [4] and 12% in assay [5] (setting [8]). Further, in assay [3] (setting [8]), the Monocytes is given as 0.2 10^3 cells/μl. For the same compound, the Lymphocytes in assay [5] (setting [8]) is listed as 7.1 10^3 cells/μl. Also, in assay [6] (setting [8]), the “Total WBC” value was 8.4 10^3 cells/μl.

Turning to `CC(C)Oc1ccc2c(O)c(C(=O)NCC(=O)O)nc(C#N)c2c1` [Compound H, [(1-Cyano-4-hydroxy-7-isopropoxy-isoquinoline-3-carbonyl)-amino]-acetic acid], the Neutrophils in assay [1] (setting [9]) is recorded as 1.6 10^3 cells/μl; in assay [1] (setting [10]), 0.7 10^3 cells/μl. Moreover, the change in vivo at 100 mg/kg in assay [2] amounted to 120%; in assay [4] it was 135%; in assay [5] (setting [9]) it was 120%. For the same compound, the change in vivo at 200 mg/kg in assay [2] was 783%; in assay [4], 6%; in assay [5] (setting [10]) it was 963%. For the same compound, the Monocytes in assay [3] (setting [9]) and in assay [3] (setting [10]) was 0.1 10^3 cells/μl throughout. For the same compound, the results for the Lymphocytes in assay [5] (setting [9]) and in assay [5] (setting [10]) were 7.7 10^3 cells/μl and 37.0 10^3 cells/μl, respectively. Also, the figures for the “Total WBC” value in assay [6] (setting [9]) and in assay [6] (setting [10]) were 9.4 10^3 cells/μl and 37.8 10^3 cells/μl, respectively.

As for `O=C(O)CNC(=O)c1c(O)c2cccn2n(Cc2ccc(C(F)(F)F)cc2)c1=O` [Compound BG, {[4-Hydroxy-2-oxo-1-(4-trifluoromethyl-benzyl)-1,2-dihydro-pyrrolo[1,2-b]pyridazine-3-carbonyl]-amino}-acetic acid], the Neutrophils in assay [1] (setting [10]) is 1.0 10^3 cells/μl. Further, the change in vivo at 200 mg/kg in assay [2] amounted to 252%; in assay [3] (setting [10]), 60%; in assay [4], 22%; in assay [5] (setting [10]) it was 296%. For the same compound, the Monocytes in assay [3] (setting [10]) is 0.2 10^3 cells/μl. In addition, the Lymphocytes in assay [5] (setting [10]) is 24.4 10^3 cells/μl. The “Total WBC” value in assay [6] (setting [10]) is 26.2 10^3 cells/μl.

For `N#Cc1nc(C(=O)NCC(=O)O)c(O)c2ccn(Cc3ccccc3F)c12` [Compound I, {[7-Cyano-1-(2-fluoro-benzyl)-4-hydroxy-1H-pyrrolo[2,3-c]pyridine-5-carbonyl]-amino}-acetic acid], the Neutrophils in assay [1] (setting [9]) is 0.8 10^3 cells/μl. Further, the change in vivo at 100 mg/kg in assay [2] is 95%; in assay [3] (setting [9]), 425%; in assay [4], 17%; in assay [5] (setting [9]) it was 127%. Besides, the Monocytes in assay [3] (setting [9]) was 0.2 10^3 cells/μl. Also, the Lymphocytes in assay [5] (setting [9]) is 12.1 10^3 cells/μl. In addition, in assay [6] (setting [9]), the “Total WBC” value is 13.1 10^3 cells/μl.

In the case of `N#Cc1nc(C(=O)NCC(=O)O)c(O)c2ccn(Cc3ccc4ccccc4c3)c12` [Compound R, [(7-Cyano-4-hydroxy-1-naphthalen-2-ylmethyl-1H-pyrrolo[2,3-c]pyridine-5-carbonyl)-amino]-acetic acid], the Neutrophils in assay [1] (setting [9]) is recorded as 1.3 10^3 cells/μl. Further, the change in vivo at 100 mg/kg in assay [2] came out at 290%; in assay [3] (setting [9]), 205%; in assay [4], 71%; in assay [5] (setting [9]), 330%. Also, in assay [3] (setting [9]), the Monocytes is given as 0.3 10^3 cells/μl. In addition, in assay [5] (setting [9]), the Lymphocytes is reported as 21.4 10^3 cells/μl. Also, the “Total WBC” value in assay [6] (setting [9]) is reported as 23.0 10^3 cells/μl.

For the compound `Cc1cccc(C)c1Oc1ccc2c(C#N)nc(C(=O)NCC(=O)O)c(O)c2c1` [Compound E, {[1-Cyano-6-(2,6-dimethyl-phenoxy)-4-hydroxy-isoquinoline-3-carbonyl]-amino}-acetic acid], the Neutrophils in assay [1] (setting [10]) was 0.8 10^3 cells/μl. Also, the change in vivo at 200 mg/kg in assay [2] amounted to 221%; in assay [3] (setting [10]) it was 100%; in assay [4], 54%; in assay [5] (setting [10]), 245%. In addition, the Monocytes in assay [3] (setting [10]) is 0.1 10^3 cells/μl. Also, the Lymphocytes in assay [5] (setting [10]) is recorded as 15.8 10^3 cells/μl. Besides, the “Total WBC” value in assay [6] (setting [10]) is recorded as 16.6 10^3 cells/μl.

Consider `N#Cc1nc(C(=O)NCC(=O)O)c(O)c2c(Cl)cn(Cc3ccccc3)c12` [Compound F, [(1-Benzyl-3-chloro-7-cyano-4-hydroxy-1H-pyrrolo[2,3-c]pyridine-5-carbonyl)-amino]-acetic acid], for which the Neutrophils in assay [1] (setting [9]) is recorded as 0.7 10^3 cells/μl. In addition, the results for the change in vivo at 100 mg/kg in assay [2], in assay [4] and in assay [5] (setting [9]) were 81%, 23% and 86%, respectively. Also, the Monocytes in assay [3] (setting [9]) was 0.1 10^3 cells/μl. In addition, the Lymphocytes in assay [5] (setting [9]) was 11.6 10^3 cells/μl. Further, in assay [6] (setting [9]), the “Total WBC” value is recorded as 12.6 10^3 cells/μl.

Turning to `N#Cc1nc(C(=O)NCC(=O)O)c(O)c2ccn(Cc3ccc(F)cc3)c12` [Compound O, {[7-Cyano-1-(4-fluoro-benzyl)-4-hydroxy-1H-pyrrolo[2,3-c]pyridine-5-carbonyl]-amino}-acetic acid], the Neutrophils in assay [1] (setting [7]) is on record as 0.8 10^3 cells/μl. Also, the change in vivo at 60 mg/kg in assay [2] was 86%; in assay [3] (setting [7]), 140%; in assay [4], -3%; in assay [5] (setting [7]) it was 102%. Besides, the Monocytes in assay [3] (setting [7]) is on record as 0.2 10^3 cells/μl. The Lymphocytes in assay [5] (setting [7]) is recorded as 10.9 10^3 cells/μl. The “Total WBC” value in assay [6] (setting [7]) is 11.9 10^3 cells/μl.
